Test systems include SF-268 CNS; KM12 colon; HCT-15 colon; ACHN renal; HL-60(TB) leukemia; HOP-62 NSCLC; SK-OV-3 ovarian; OVCAR-4 ovarian; NCI-H226 lung; PC-3 prostate.
Holding throughout (experiment): growth of human tumour cells (NCI), 48 h

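48-hour exposure; five concentrations; linearly interpolated endpoints. GI50 marks 50% less growth. The concentration for full growth arrest is given as TGI.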

Turning to `CC(=O)Oc1cc2c(cc1OC(C)=O)C1(C)CCC2(C)c2cc(OC(C)=O)c(OC(C)=O)cc21`, the TGI with SF-268 CNS is greater than 100 µM; in the assay on KM12 colon it was 28.8 µM; in the assay with HCT-15 colon, 85.3 µM; with ACHN renal, greater than 100 µM; in the assay on HL-60(TB) leukemia it was 19.9 µM; in the assay on HOP-62 NSCLC, 58.2 µM. Besides, the figures for the TGI in the assay with SK-OV-3 ovarian and with OVCAR-4 ovarian were 72.5 µM and 32.1 µM, respectively.
With `COC(=O)C(=O)CC(=O)CCn1[nH]c(=O)c(Cl)c(Cl)c1=O`, the TGI with SF-268 CNS, in the assay with KM12 colon, with HCT-15 colon, in the assay with ACHN renal, in the assay on HL-60(TB) leukemia and with HOP-62 NSCLC was greater than 100 µM each time. Moreover, the TGI in the assay with OVCAR-4 ovarian and with NCI-H226 lung was greater than 100 µM each time.
As to `CCC[CH2][Sn]([CH2]CCC)([O]C(=O)CN)[O]C(=O)CN`, the GI50 in the assay with SF-268 CNS was 20.6 µM; in the assay with KM12 colon, greater than 100 µM; in the assay on HCT-15 colon, 26.9 µM; in the assay on ACHN renal, 48.1 µM; in the assay on HL-60(TB) leukemia, 18.5 µM; in the assay on HOP-62 NSCLC, 7.25 µM. In addition, the GI50 is greater than 100 µM in the assay on SK-OV-3 ovarian, greater than 100000 nM in the assay on OVCAR-4 ovarian and greater than 100 µM with NCI-H226 lung. The TGI in the assay with SF-268 CNS was 71.6 µM; in the assay with KM12 colon, greater than 100 µM; in the assay on HCT-15 colon, 63.6 µM; with ACHN renal it was greater than 100 µM; with HL-60(TB) leukemia, 65 µM; in the assay on HOP-62 NSCLC, greater than 100 µM. The TGI with SK-OV-3 ovarian, in the assay with OVCAR-4 ovarian and in the assay on NCI-H226 lung was greater than 100 µM throughout.
Consider `CC(=O)c1ccc(NC(=O)/C(CC(=O)c2sc(-c3cccnc3)nc2C)=N/NC(N)=O)cc1`, for which the TGI in the assay with SF-268 CNS was greater than 100 µM; with KM12 colon, greater than 100 µM; in the assay with HCT-15 colon, greater than 100 µM; with ACHN renal, 56.1 µM; in the assay on HL-60(TB) leukemia, 72.9 µM; in the assay with SK-OV-3 ovarian it was greater than 100 µM. Besides, the TGI with OVCAR-4 ovarian is greater than 100 µM; with NCI-H226 lung, 75.6 µM.
For the compound `O=C(Nc1ccc(Cl)cc1)C1C(=O)C(=O)N(c2ccc(Cl)cc2)C1=O` (centres undefined), the TGI with SF-268 CNS, in the assay on KM12 colon, in the assay with HCT-15 colon, in the assay with ACHN renal, in the assay with HL-60(TB) leukemia and in the assay on SK-OV-3 ovarian was greater than 100 µM in each case. The compound further yielded a TGI in the assay on NCI-H226 lung greater than 100 µM.
`Cc1ccc(S(=O)(=O)N/N=C2\CCCCC23CCC(=O)NC3)cc1` (centres undefined): the TGI with SF-268 CNS, in the assay with KM12 colon, with HCT-15 colon, with ACHN renal, in the assay on HL-60(TB) leukemia and in the assay on HOP-62 NSCLC was greater than 100 µM in each case. For the same compound, the TGI in the assay with SK-OV-3 ovarian, in the assay with OVCAR-4 ovarian and in the assay on NCI-H226 lung was greater than 100 µM throughout.
With `COc1ccc([C@@]2(O)c3c(ccc(O)c3OC)[C@H]2OC)c(OC)c1`, the TGI in the assay with SF-268 CNS, with KM12 colon, with ACHN renal, with HL-60(TB) leukemia, in the assay with HOP-62 NSCLC and in the assay on SK-OV-3 ovarian was greater than 100 µM throughout. The TGI in the assay on OVCAR-4 ovarian and in the assay on NCI-H226 lung was greater than 100 µM in each case.
Turning to `COc1ccc2c(c1)C(=O)CCc1cc(OC)c(OC)c(OC)c1-2`, the GI50 with SF-268 CNS was 0.0652 µM; in the assay with KM12 colon, less than 0.01 µM; with HCT-15 colon, less than 0.01 µM; in the assay on ACHN renal, 0.0505 µM; in the assay with OVCAR-4 ovarian, 818 nM; in the assay on PC-3 prostate, less than 10 nM. Further, in the assay with NCI-H226 lung, the GI50 was less than 0.01 µM. The TGI in the assay on SF-268 CNS, with HCT-15 colon, in the assay on ACHN renal, in the assay on SK-OV-3 ovarian, with OVCAR-4 ovarian and in the assay with PC-3 prostate was greater than 100 µM each time.
Consider `N#C/C(=C/c1cccc(Oc2ccccc2)c1)c1ccccc1`, for which the TGI in the assay with SF-268 CNS, with KM12 colon, in the assay with HCT-15 colon, with ACHN renal, in the assay on HL-60(TB) leukemia and in the assay on SK-OV-3 ovarian was greater than 100 µM in each case. In addition, the TGI with OVCAR-4 ovarian and in the assay on NCI-H226 lung was greater than 100 µM throughout.
Consider `COc1cc(NS(=O)(=O)c2ccc(C)cc2)c2nccnc2c1`, for which the TGI in the assay with SF-268 CNS was 93.7 µM; in the assay on KM12 colon it was greater than 100 µM; with HCT-15 colon it was greater than 100 µM; in the assay on ACHN renal it was 80.8 µM; with HL-60(TB) leukemia, 51.7 µM; with HOP-62 NSCLC it was greater than 100 µM. In addition, the TGI with SK-OV-3 ovarian, in the assay on OVCAR-4 ovarian and in the assay with NCI-H226 lung was greater than 100 µM in each case.
As to `NC1=NN(c2ccccc2)C(=O)C1C(=O)CCC(=O)Nc1cccc(Cl)c1` (centres undefined), the TGI in the assay with SF-268 CNS, in the assay on KM12 colon, with HCT-15 colon, in the assay on ACHN renal, in the assay on HL-60(TB) leukemia and in the assay with HOP-62 NSCLC was greater than 100 µM each time. For the same compound, the TGI with SK-OV-3 ovarian, in the assay with OVCAR-4 ovarian and in the assay with NCI-H226 lung was greater than 100 µM in each case.
Consider `Cc1ccc(S(=O)(=O)OC2CC=CC2)cc1`, for which the TGI in the assay on KM12 colon, in the assay on HCT-15 colon, in the assay on ACHN renal, with HL-60(TB) leukemia, in the assay on HOP-62 NSCLC and with SK-OV-3 ovarian was greater than 100 µM throughout. In addition, the TGI with OVCAR-4 ovarian and in the assay with NCI-H226 lung was greater than 100 µM each time.
For `COc1ccc(C=O)cc1O[Si](C)(C)C(C)(C)C`, the TGI in the assay on SF-268 CNS, in the assay with KM12 colon, with HCT-15 colon, with ACHN renal, with HL-60(TB) leukemia and in the assay with HOP-62 NSCLC was greater than 100 µM in each case. In addition, the TGI in the assay on SK-OV-3 ovarian and in the assay with OVCAR-4 ovarian was greater than 100 µM each time.
On to `N#CCC(=O)N/N=C1/C(=O)N(c2ccc(Cl)cc2)C(=O)C(=O)C1c1nc2ccccc2s1` (centres undefined), for which the TGI with SF-268 CNS, with KM12 colon, in the assay on HCT-15 colon, in the assay with ACHN renal, in the assay on HOP-62 NSCLC and in the assay on SK-OV-3 ovarian was greater than 100 µM throughout. Besides, the TGI in the assay on OVCAR-4 ovarian and in the assay on NCI-H226 lung was greater than 100 µM throughout.

Source of the values: PubChem BioAssay (NCI).
